Measured values reported in patent US20240251790A1 (priority 2021, published 2024).

What was measured:
Assay type in all cases: cell-based
[1] = system: total microbial count (APC)
[2] = system: yeast and mold (YM)
[3] = system: coliforms (ECC)

Percitric acid [PCA]
efficiency against APC [1]: efficient | effect on YM [2]: minimal effect | efficiency against ECC [3]: efficient
